Reference: patent US5981525A, “Indole derivatives useful in the treatment of osteoporosis” (SmithKline Beecham Corporation, priority 1995, dated 1999)
Counter-ions that a name gives are not always drawn.

Key:
[1] = biological target: bafilomycin-sensitive ATPase; experiment: Inhibition of bafilomycin-sensitive ATPase in chicken osteoclasts (ATPase assay, Pi release); assay type: biochemical; conditions: chicken osteoclast membranes
Experimental: Vesicles were prepared from medullar bone obtained from tibiae and femurs of egg-laying hens which were calcium-starved for at least 15 days. Briefly, bone fragments were scraped with a 24 scalpel blade, suspended in 40 ml of isolation medium (0.2 M sucrose, 50 mM KCl, 10 mM Hepes, 1 mM EGTA, 2 mM dithiotheitrol, pH 7.4) and filtered through a 100 μm pore size nylon mesh. The whole procedure was performed at 4° C. After homogenisation in a potter (20 strokes) in 40 ml of isolation medium an initial centrifugation (6,500×gmax 20 min) was performed to remove mitochondria and lysosomes. The supematant was centrifuged at 100,000×gmax for 1 hr and the pellet was collected in 1 ml of isolation medium, divided into 200 μl aliquots, immediately frozen in liquid nitrogen and stored at -80° C. The protein content was determined using a Biorad colourimetric kit according to Bradford [M. Bradford, Anal. Biochem., 72, 248 (1976)]. For the proton transport assay, 5-10 μl of membranes were used.
Purification of osteoclast membranes. 1 ml of crude microsomal vesicles prepared above were applied (about 0.2 ml per tube ) on the top of a sucrose step-gradient consisting of 3.5 ml of 15%, 30% and 45% (w/w) sucrose in isolation medium and centrifuged at 280,000 gmax for 2 hours (SW 41 Ti rotor). After centrifugation the 30-45% sucrose interfaces were collected, diluted approx. 20-fold in isolation medium and pelletted at 100,000 gmax for 1 hour (SW 28 rotor). The pellet was then resuspended in 1 ml of isolation medium, aliquoted and frozen in liquid N2 and stored at -80° C. until used.
Inhibition of bafilomycin-sensitive ATPase activity was assessed in purified membrane vesicles by measuring the release of inorganic phosphate (Pi) during 30 min of incubation at 37° C. in a 96-well plate either in the presence or in the absence of bafilomycin Al. The reaction medium contained 1 mM ATP, 10 mM HEPES-Tris pH 8,50 mM KCl, 5 uM valinomycin, 5 uM nigericin, 1 mM CDTA-Tris, 100 uM ammonium molybdate, 0.2 M sucrose and membranes (20 ug protein/ml). The reaction was initiated by MgSO4 (8-arm pipette) and stopped, after 30 min, by addition of 4 volumes of the malachite green reagent (96-arm pipette) prepared according to Chan [Anal. Biochem. 157, 375 (1986)]. Absorbance at 650 nm was measured after 2 min using a microplate reader. Results are expressed as μmol (Pi)×mg protein^-1 ×hour^-1 and, for each experiment, represent the mean±sem of triplicates.

osteoclast proton pump = conditions: ruffled membrane vesicles from avian osteoclasts; cited from earlier work
osteoclast cultures = conditions: cited from earlier work

| Compound | IC50 [1] [µM] | also measured |
| --- | --- | --- |
| COC(=O)/C(=C/C=C/c1cc2cc(Cl)ccc2[nH]1)OC [Example 4, Methyl (2Z,4E)-5-(5-chloro-2-indolyl)-2-methoxy-2,4-pentadienoate] | 7 | – |
| COC(=O)/C(=C/C=C/c1cc2cc(Cl)c(Cl)cc2[nH]1)OC [Example 6, Methyl (2Z,4E)-5-(5,6-dichloro-2-indolyl)-2-methoxy-2,4-pentadienoate] | 1.1 | – |
| CO/C(=C\C=C\c1cc2cc(Cl)ccc2[nH]1)C(=O)NCc1cccnc1 [Example 15, (2Z,4E)-5-(5-Chloro-2-indolyl)-2-methoxy-N-(3-pyridylmethyl)-2,4-pentadienamide] | 22 | – |
| CO/C(=C\C=C\c1cc2cc(Cl)ccc2[nH]1)C(=O)N(Cc1ccccc1)CC(O)CO (stereo not shown) [Example 20, (2Z,4E)-5-(5-Chloro-2-indolyl)-N-2,3-dihydroxypropyl-2-methoxy-N-phenylmethyl-2,4-pentadienamide] | 15 | – |
| CCN(CC)CCCNC(=O)/C(=C/C=C/c1cc2cc(Cl)ccc2[nH]1)OC [Example 26, (2Z,4E)-5-(5-Chloro-2-indolyl)-N-[3-(diethylamino)-propyl]-2-methoxy-2,4-pentadienamide] | 3 | – |
| CCOC(=O)/C(=C/C=C/c1cc2cc(Cl)ccc2[nH]1)OCC [Example 30, Ethyl(2Z,4E)-5-(5-chloro-2-indolyl)-2-ethoxy-2,4-pentadienoate] | 30 | – |
| CO/C(=C\C=C\c1cc2cc(Cl)c(Cl)cc2[nH]1)C(=O)N[C@@H]1CN2CCC1CC2 [Example 50, (2Z,4E)-N-[(S)-1-Azabicyclo[2.2.2]octan-3-yl]-5-(5,6-dichloro-2-indolyl)-2-methoxy-2,4-pentadienamide] | 0.62 | – |
| CO/C(=C\C=C\c1cc2cc(Cl)c(Cl)cc2[nH]1)C(=O)NC1CC2CCC(C1)N2C (stereo not drawn) [Example 66, (2Z,4E)-6-(5,6-dichloro-2-indolyl)-N-[8-methyl-8-azabicyclo[3.2.1]oct-3β-yl]-2-methoxy-2,4-pentadienamide] | 0.1 | – |
| CCN1C(=O)C=CC1=O [N-ethylmaleimide] | – | inhibition of proton transport (osteoclast proton pump): inhibited |
| Cc1nc2c(OCc3ccccc3)cccn2c1CC#N [SCH 28080] | – | inhibition of proton transport (osteoclast proton pump): not inhibited |
| CO/C1=C\C(C)=C\[C@@H](C)[C@@H](O)[C@@H](C)C/C(C)=C/C=C/[C@H](OC)[C@@H]([C@@H](C)[C@@H](O)[C@H](C)[C@@]2(O)C[C@@H](O)[C@H](C)[C@@H](C(C)C)O2)OC1=O [bafilomycin A1] | – | inhibition of proton transport (osteoclast proton pump): inhibited; inhibition of bone resorption (osteoclast cultures): inhibit bone resorption |
| COc1ccc2[nH]c([S+]([O-])Cc3ncc(C)c(OC)c3C)nc2c1 (stereo not shown) [omeprazole] | – | inhibition of proton transport (osteoclast proton pump): not inhibited |
| C[C@@H]1O[C@@H](O[C@H]2C[C@@H](O)[C@]3(CO)[C@H]4[C@H](O)C[C@]5(C)[C@@H](C6=CC(=O)OC6)CC[C@]5(O)[C@@H]4CC[C@]3(O)C2)[C@H](O)[C@H](O)[C@H]1O [ouabain] | – | inhibition of proton transport (osteoclast proton pump): not inhibited |
| [Na+].[Na+].[Na+].[O]=[V]([O-])([O-])[O-] [sodium orthovanadate] | – | inhibition of proton transport (osteoclast proton pump): not inhibited |

Further lines, with some results ahead:

| IC50 [1] [µM] | Compound | also measured |
| --- | --- | --- |
| 4 | CO/C(=C\C=C\c1cc2cc(Cl)ccc2[nH]1)C(=O)Nc1cccnc1 [Example 33] | – |
| 0.17 | CCN(CC)CCCNC(=O)/C(=C/C=C/c1cc2cc(Cl)c(Cl)cc2[nH]1)OC [Example 34, (2Z,4E)-5-(5,6-Dichloro-2-indolyl)-N-[3-(diethylamino)-propyl]-2-methoxy-2,4-pentadienamide] | – |
| 30 | CO/C(=C\C=C\c1cc2cc(Cl)ccc2[nH]1)C(=O)NCc1ccc(N)cc1 [Example 37] | – |
| 0.62 | CO/C(=C\C=C\c1cc2cc(Cl)c(Cl)cc2[nH]1)C(=O)Nc1cccnc1 [Example 44, (2Z,4E)-5-(5,6-Dichloro-2-indolyl)-2-methoxy-N-(3-pyridyl)-2,4-pentadienamide] | – |
| 14 | CO/C(=C\C=C\c1cc2cc(Cl)c(Cl)cc2[nH]1)C(=O)NCCCN(CC(=O)O)CC(=O)O [Example 45, hydrochloride] | – |
| 0.59 | CCN(CC)CCNC(=O)/C(=C/C=C/c1cc2cc(Cl)c(Cl)cc2[nH]1)OC [Example 46, (2Z,4E)-5-(5,6-Dichloro-2-indolyl)-N-[2-(diethylamino)-ethyl]-2-methoxy-2,4-pentadienamide] | – |
| 4 | CO/C(=C\C=C\c1cc2cc(Cl)c(Cl)cc2[nH]1)C(=O)NCCCn1ccnc1 [Example 49, (2Z,4E)-5-(5,6-Dichloro-2-indolyl)-N-[3-(1H-imidazol-1-yl)-propyl]-2-methoxy-2,4-pentadienamide] | – |
| 1.1 | CO/C(=C\C=C\c1cc2cc(Cl)c(Cl)cc2[nH]1)C(=O)NCCCN1CCOCC1 [Example 51, (2Z,4E)-5-(5,6-Dichloro-2-indolyl)-N-[3-(morpholino)propyl]-2-methoxy-2,4-pentadienamide] | – |
| 1.2 | CO/C(=C\C=C\c1cc2cc(Cl)c(Cl)cc2[nH]1)C(=O)NCCN1CCCCC1 [Example 53, (2Z,4E)-5-(5,6-Dichloro-2-indolyl)-N-[2-(1-piperidinyl)-ethyl]-2-methoxy-2,4-pentadienamide] | – |
| 0.34 | CO/C(=C\C=C\c1cc2cc(Cl)c(Cl)cc2[nH]1)C(=O)NCCC1CCCN1C (stereo not shown) [Example 54, (2Z,4E)-5-(5,6-Dichloro-2-indolyl)-2-methoxy-N-[2-[2-(1-methyl)pyrrolidinyl]ethyl]-2,4-pentadienamide] | – |
| 0.07 | CO/C(=C\C=C\c1cc2cc(Cl)c(Cl)cc2[nH]1)C(=O)NC1CC(C)(C)NC(C)(C)C1 [Example 56, (2Z,4E)-5-(5,6-Dichloro-2-indolyl)-2-methoxy-N-[4-(2,2,6,6-tetramethyl)piperidinyl]-2,4-pentadienamide] | – |
| 1.6 | CO/C(=C\C=C\c1cc2cc(Cl)c(Cl)cc2[nH]1)C(=O)Nc1ccc(OC)nc1 [Example 57, (2Z,E)-5-(5,6-Dichloro-2-indolyl)-2-methoxy-N-[5-(2-methoxy)pyridyl]-2,4-pentadienamide] | – |
| 0.13 | CO/C(=C\C=C\c1cc2cc(Cl)c(Cl)cc2[nH]1)C(=O)NCCCN1CCCCC1C (stereo not shown) [Example 59, (2Z,4E)-5-(5,6-Dichloro-2-indolyl)-2-methoxy-N[3-[1-(2-methyl)piperidin-yl]-propyl]-2,4-pentadienamide] | – |
| 0.85 | CO/C(=C\C=C\c1cc2cc(Cl)c(Cl)cc2[nH]1)C(=O)NN1CCN(C)CC1 [Example 60, (2Z,4E)-5-(5,6-Dichloro-2-indolyl)-2-methoxy-N-[1-(4-methylpiperazinyl)]-2,4-pentadienamide] | – |
| 1.4 | CCN(CCCNC(=O)/C(=C/C=C/c1cc2cc(Cl)c(Cl)cc2[nH]1)OC)Cc1ccccc1 [Example 62] | – |
| 17 | CO/C(=C\C=C\c1cc2cc(Cl)c(Cl)cc2[nH]1)C(=O)Nc1ncccn1 [Example 65, (2Z,4E)-5-(5,6-Dichloro-2-indolyl)-2-methoxy-N-(2-pyrimidinyl)-2,4-pentadienamide] | – |
| 1.3 | CO/C(=C\C=C\c1cc2cc(Cl)c(Cl)cc2[nH]1)C(=O)NCCCN1CCN(C)CC1 [Example 67, (2Z,4E)-5-(5,6-Dichloro-2-indolyl)-2-methoxy-N-[3-[1-(4-methyl)piperazinyl]-propyl]-2,4-pentadienamide] | – |
| 0.12 | CO/C(=C\C=C\c1cc2cc(Cl)c(Cl)cc2[nH]1)C(=O)NC1CCN(C)CC1 [Example 70, (2Z,4E)-5-(5,6-Dichloro-2-indolyl)-2-methoxy-N-[4-(1-methyl)-piperidinyl]-2,4-pentadienamide] | – |
| 0.53 | CO/C(=C\C=C\c1cc2cc(Cl)c(Cl)cc2[nH]1)C(=O)Nc1ncnc2[nH]ncc12 [Example 71, (2Z,4E)-5-(5,6-Dichloro-2-indolyl)-2-methoxy-N-(1H-pyrazolo[3,4-d]pyrimidin-4-yl)-2,4-pentadienamide] | – |
